{
  "source": "paper PMC8810462",
  "about": "“Targeted fluorescent imaging of a novel FITC-labeled PSMA ligand in prostate cancer” (Amino Acids, 2021)",
  "key": {"[1]": {"test": "Acute toxicity test (HE staining of organs)", "type": "in vivo, ICR male mice", "settings": "100 mg/kg tail vein, organs collected 7 days later", "method": "ICR male mice (approximately 3–4 weeks old, with a body weight of 12–16 g) were injected with PSMA-FITC (100 mg/kg) through the tail vein, and organs were collected 7 days later. The organs were sectioned and stained with HE. The control group was injected with the same volume of normal saline. The steps are the same as described above."}, "[2]": {"tested_on": "PSMA(+) LNCaP cells", "test": "In vitro confocal fluorescence imaging, cell uptake", "type": "cell-based, human", "method": "(§1) Both the LNCaP cells and PC3 cells were grown in a T25 cell culture flask (Corning Inc., Corning, NY, USA). The cultured LNCaP cells and PC3 cells were inoculated into a confocal dish and placed in an incubator at 37 °C/5% CO2 for 24 h. The medium was changed 2 h before the cell uptake experiment. The medium was removed, the flask rinsed once with PBS, and 5 μg of PSMA-FITC (100 μl) was added to each dish, which was then filled with medium to a final volume of 2 ml. The cells were incubated in an incubator for 60 min, washed 4 times with PBS buffer containing 0.2% BSA. Add 450 μl 4% paraformaldehyde to fix the cells for 10 min then rinse with PBS for four times. Cell nucleus were stained with 450 μl Hoechst33342 for 10 min and rinsed with PBS for four times. Add 500 μl PBS before observation. The cells were observed under confocal microscope (Olympus FV 1000) in dark room. In the blocking group, the LNCaP cells were pretreated with 2-PMPA (20 μg) for 30 min, and then PSMA-FITC was added and incubated for 60 min. The steps are the same as described above in the dark."}, "[3]": {"tested_on": "PSMA(−) PC3 cells", "test": "In vitro confocal fluorescence imaging, cell uptake", "type": "cell-based, human", "settings": "5 μg PSMA-FITC, 37 °C, 60 min", "method": "as §1"}, "[4]": {"tested_on": "PSMA (−) PC3 tumor", "test": "In vivo fluorescence imaging of tumor-bearing mice", "set-up": "species or system BALB/c male nude mice", "settings": "0.5 mg/kg tail vein, compared with 22Rv1 tumor-bearing mice", "method": "(§2) All animal procedures were performed in accordance with the protocol approved by the Animal Care and Use Committee of the PLA General Hospital. BALB/c male nude mice (approximately 3–4 weeks old, with a body weight of 13–15 g) were purchased from Charles River Laboratories (Beijing, China). Then, 0.1 ml (approximately 5 × 10^6 cells) of 22Rv1 cell suspension was subcutaneously injected into the right shoulder of each mouse to form an 22Rv1 tumor xenograft. Vernier calipers were used to measure the length and shortest diameter of the tumor, and the tumor volume was estimated according to the formula (V = 1/2 × long diameter × shortest diameter^2). Fluorescence imaging was performed in vivo and in vitro when the tumor volume reached 200–300 mm^3. The PC3 cell planting method is the same as 22Rv1 cell planting method.\n(§3) In vivo fluorescence imaging was performed using the French Biospace Lab in vivo optical imaging system, the PHOTON IMAGER OPTIMA multidimensional real-time awake animal in vivo optical imaging system software was used for analysis, and the FITC exclusive filter was used to collect the fluorescence of PSMA-FITC. All images were collected using the same parameters (lamp voltage, filter, exposure height, exposure time, and field of view). The collected images were processed in a unified manner, and the number of photons per second per centimeter squared per steradian (ph/s/cm^2/sr) was used for analysis. 22Rv1 tumor-bearing mice in the nonblocking group (n = 5) and PC3 tumor-bearing mice (n = 5) were injected with PSMA-FITC (0.5 mg/kg) through the tail vein, and fluorescence imaging was performed at different time points after injection. The 22Rv1 tumor-bearing mice (n = 5) in the blocking group were injected with a mixture of 2-PMPA (2 mg/kg) and PSMA-FITC (0.5 mg/kg), and fluorescence imaging was performed 60 min after the injection. Another 9 22Rv1 tumor-bearing mice were divided into three groups (3/group), PSMA-FITC (0.5 mg/kg) was injected into the tail vein, and the mice were euthanized 30, 60, or 120 min after injection. The tumors, tissues, and organs were dissected, and a fluorescence imaging system was used for in vitro imaging. The ROI was delineated, and the average fluorescence intensity reported.\n(§4) All measured values are expressed as the means ± standard deviation. Independent sample t-test was used for statistical analysis, and P < 0.05 was considered statistically significant. To clarify tumor contrast, the region of interest (ROI) was delineated, and the mean fluorescence intensity of tumor tissue (T) and background (B) was collected. TBR was used to represent tumor-background contrast. Normal muscle tissue was selected as the background to outline."}, "[5]": {"tested_on": "22Rv1 tumor xenograft", "test": "In vivo fluorescence imaging of tumor-bearing mice", "set-up": "species or system BALB/c male nude mice", "settings": "for tumor-background ratio (TBR): 60 min after injection, n = 5", "method": "as §2, §3, §4"}, "[6]": {"test": "Ex vivo fluorescence imaging of dissected tumors, tissues and organs (distribution)", "type": "in vivo, BALB/c male nude mice", "settings": "22Rv1 tumor-bearing mice, 0.5 mg/kg tail vein, 30, 60, 120 min", "method": "as §3"}, "[7]": {"settings": "0.5 mg/kg tail vein, 22Rv1 tumor-bearing mice"}},
  "data": [
    {"smiles": "O=C(O)CCC(NC(=O)NC(CCCCNC(=O)CCCCCNC(=S)Nc1ccc2c(c1)C(=O)OC21c2ccc(O)cc2Oc2cc(O)ccc21)C(=O)O)C(=O)O", "note": "(stereo not drawn) [PSMA-FITC]", "values": [
      {"measurement": "organ damage (histopathology, HE staining)", "setting": "[1]", "result": "not damaged"},
      {"measurement": "fluorescence signal in cells (confocal microscopy)", "setting": "[2]; LNCaP cells pretreated with 2-PMPA (20 μg) for 30 min, then PSMA-FITC 60 min", "result": "negligible fluorescence signaling"},
      {"measurement": "fluorescence signal in cells (confocal microscopy)", "setting": "[2]; LNCaP cells, 5 μg PSMA-FITC, 37 °C, 60 min, no blocking", "result": "Significant fluorescence signals"},
      {"measurement": "fluorescence signal in cells (confocal microscopy)", "setting": "[3]", "result": "negligible fluorescence signaling"},
      {"measurement": "tumor uptake of the probe", "setting": "[4]", "result": "significantly lower than that of 22Rv1 tumor-bearing mice"},
      {"measurement": "time of highest tumor-background contrast after injection", "setting": "[5]; [7]", "result": 60, "unit": "min"},
      {"measurement": "time to tumor targeting after injection", "setting": "[5]; [7]", "result": "≤ 30", "unit": "min"},
      {"measurement": "tumor-background ratio (TBR)", "setting": "[5]; blocking group, coinjection of 2-PMPA 2 mg/kg with PSMA-FITC 0.5 mg/kg", "result": "0.44 ± 0.13"},
      {"measurement": "tumor-background ratio (TBR)", "setting": "[5]; nonblocking group, PSMA-FITC 0.5 mg/kg tail vein", "result": "3.45 ± 0.31"},
      {"measurement": "fluorescence intensity of liver and small intestine (ex vivo)", "setting": "[6]", "result": "strong fluorescence intensity"},
      {"measurement": "fluorescence intensity of the bladder (ex vivo)", "setting": "[6]", "result": "obviously at a high level"},
      {"measurement": "uptake by the kidney (ex vivo fluorescence)", "setting": "[6]", "result": "higher than that measured in other normal organs"}
    ]}
  ]
}
